Laboratory results: patent US6723702B2, “Use of relaxin treat diseases related to vasoconstriction” (RAS Medical, Inc., priority 2000, dated 2004)
Marks after values point to notes of the source that are not given here.

Key:
intact, female rats = experiment: Hematocrit and plasma osmolality during chronic relaxin infusion; type: in vivo, rat; conditions: for Hematocrit, Difference between baseline and Day 5 / Plasma osmolality, Difference between baseline and Day 5: 4 μg/h s.c. infusion
Experimental: At the beginning of each experiment, immediately after opening the arterial catheter and before infusion of fluids, 100 μl of blood was collected into a heparinized tube. After centrifugation to separate blood cells from plasma, the latter was frozen at −20° C. until assay for osmolality. Then, three 30-minute baseline urine collections with midpoint blood samples and continuous recording of MAP were made on one or two occasions separated by at least 48 hours, in order to accurately measure control MAP, GFR, ERPF, and ERVR (MAP/ERPF). The hematocrit was also routinely determined on these midpoint blood samples. The renal clearances of IN and PAH were used to assess GFR and ERPF, respectively. […] Next, an osmotic minipump containing purified porcine RLX (4 μg/hour; n=7 rats), rhRLX (4 μg/hour; n=5) or vehicle (n=4) was implanted. MAP, GFR, ERPF, and ERVR were assessed on days 2 and 5 of the infusion, and 5-12 days after depletion of the 7-day minipump. Details of our methodologies for the assessment of GFR and ERPF in chronically instrumented, conscious rats including the measurement of IN and PAH in both plasma and urine have been previously published. Conrad (1984) Kidney Int. 26:24-29; and Danielson and Conrad (1995) J. Clin. Invest. 96:482-490. Circulating relaxin concentrations of 20-40 ng/mL have been measured in rats of 12-14 gestational days. Sherwood et al. (1980) Endocrinol. 107:691-698. An infusion rate of 4 μg/hour for purified porcine RLX or rhRLX would be expected to produce plasma levels of 20-40 ng/mL.
Plasma osmolality was measured using a freezing-point depression instrumentation osmometer (Model 3MO, Advanced Instruments, Needham Heights, Mass.). Plasma and urine IN and PAH were assayed by standard techniques. Urinary sodium concentration was measured by ion selective electrode (Sodium-Potassium Chemistry Module, Beckman Instruments, Inc., Brea, Calif.). Urinary cGMP was determined by specific radioimmunoassay as previously described. Conrad and Vernier (1989) Am. J. Physiol. 257:R847-R853. Urinary NOX was measured by reduction of nitrate to nitrite, the latter determined by the Griess reaction which produces a calorimetric product measured at 540 nm (Nitrate/Nitrite Colorimetric Assay Kit, Cayman Chemical, Ann Arbor, Mich.).
Data are presented as mean±SEM. rhRLX, recombinant human relaxin. RLX was infused at 4 μg/h by osmotic minipump s.c. There were 7, 4, and 5 rats, respectively, in the porcine RLX, vehicle, and rhRLX groups at baseline, and days 2 and 5 of treatment. During the post RLX period, 6, 2, and 2 rats were studied in the porcine RLX, vehicle and rhRLX groups. Two of the rats in the vehicle group received Ringer's solution (vehicle for porcine RLX), and two received 20 mM sodium acetate, pH 5.0 (vehicle for rhRLX). The results were not different, and therefore, the data were combined. *p<0.05 vs baseline, Hp<0.05 RLX vs vehicle.

conscious male rats = experiment: 5-day rhRLX infusion in conscious male rats: MAP, renal function, hematocrit, plasma osmolality, sodium; type: in vivo, rat
Experimental: After being placed in the experimental cage, a 100 μl blood sample was drawn from the arterial catheter into a heparinized tube for measurement of baseline plasma osmolality, sodium concentration and hematocrit prior to the administration of any fluids. […] Next, a bolus of inulin (IN, 0.2 ml of a 20% stock solution/100 g BW) and para-aminohippurate (PAH, 0.1 ml of a 2% working solution/100 g BW) was given over 1 minute into the venous catheter followed by a constant infusion of the two reagents at a rate of 0.5 mg/minute per 100 g BW and 0.1 mg/minute per 100 g BW, respectively. The flow rate was 19 μl/minute delivered by a Model 200 Syringe Pump (kd Scientific, Boston Mass.). Finally, the obturator in the bladder catheter was removed, and the latter was extended with a short piece of polyethylene tubing to facilitate the collection of urine.
The technique of urine collection has proven to be reliable. Conrad and Colpoys (1986) J. Clin. Invest. 77:236-245; Danielson and Conrad (1995) J. Clin. Invest. 96:482-490; and Danielson and Conrad (1996) Circ. Res. 79:1161-1166. Indeed, after reaching steady-state in this study, the excretion rates of IN and PAH were 91±3 and 100±4% of their respective infusions. After measuring baseline mean arterial pressure and renal function, an osmotic minipump (model 2ML1, Alza Co., Palo Alto Calif.) containing either recombinant human relaxin (rhRLX; n=12 rats) or vehicle (n=7) was implanted subcutaneously on the back using light ether anesthesia. […] Five days later, mean arterial pressure (MAP), glomerular filtration rate (GFR), effective renal plasma flow (ERPF), and other parameters were again assessed as describe above. At this time, the excretion rates of IN and PAH were 91±3 and 98±2% of their respective infusion rates. At the end of the experiment, 1.0 ml of blood was collected for determination of serum rhRLX.
Inulin concentration in plasma and urine was measured by the anthrone method, and PAH was determined by the method of Bratton and Marshall as modified by Smith. This method is described in Conrad (1984) Kidney Int. 26:24-29, and references cited therein. Plasma sodium was measured by a Kodak Ektachem Instrument (Rochester, N.Y.). Plasma osmolality was determined by freezing point depression (Advanced Osmometer, Model 3MO, Advanced Instruments, Needham Heights Mass.). All urine and plasma samples from MWRI were coded and sent to UNM for analysis of IN, PAH, sodium and osmolality (by L.A.D.). The rhRLX in serum was measured using a quantitative sandwich immunoassay, again in a blinded fashion. Danielson et al. (1999) J. Clin. Invest. 103:525-533.

[1] = Baseline, before 4 μg/h s.c. minipump

Row | Substance | Hematocrit, Difference between baseline and Day 5 (intact, female rats) | Plasma osmolality, Difference between baseline and Day 5 (intact, female rats) | Hematocrit (intact, female rats; [1]) | Plasma osmolality (intact, female rats; [1]) | Hematocrit (intact, female rats; Day 2 of 4 μg/h s.c. infusion) | Plasma osmolality (intact, female rats; Day 2 of 4 μg/h s.c. infusion) | Hematocrit (intact, female rats; Day 5 of 4 μg/h s.c. infusion) | Plasma osmolality (intact, female rats; Day 5 of 4 μg/h s.c. infusion) | Hematocrit (intact, female rats; Post RLX Day 5-12) | Plasma osmolality (intact, female rats; Post RLX Day 5-12) | effect on ERPF (conscious male rats; 4 μg/hour for 5 days (FIG. 3)) | effect on ERVR (conscious male rats; 4 μg/hour for 5 days (FIG. 3)) | effect on GFR (conscious male rats; 4 μg/hour for 5 days (FIG. 3)) | effect on MAP (conscious male rats; 4 μg/hour for 5 days (FIG. 3)) | HCT (hematocrit), change from the baseline (conscious male rats; rhRLX 4 μg/hour for 5 days) | PNa+ (plasma sodium concentration), change from the baseline (conscious male rats; rhRLX 4 μg/hour for 5 days) | Posm (plasma osmolality), change from the baseline (conscious male rats; rhRLX 4 μg/hour for 5 days)
1 | rhRLX: recombinant human relaxin, identical in amino acid sequence to the product of the human H2 gene; A chain of 24, B chain of 29 amino acids | −2 ± 1 % | −12 ± 2 mOsm/kg H2O | 39 ± 0% | 299 ± 2 mOsm/kg H2O | 37 ± 1* % | 291 ± 3*† mOsm/kg H2O | 37 ± 1*† % | 286 ± 2*† mOsm/kg H2O | 40% | 302 mOsm/kg H2O | significantly increased | reducing | significantly increased | did not significantly affect | −5.0 ± 0.6 % | −5.3 ± 0.4 mEq/L | −10.9 ± 1.4 mOsm/kg H2O
2 | Porcine RLX: lyophilized, purified porcine relaxin (Sherwood and O'Byrne 1974), dissolved in Ringer's solution | −4 ± 1 % | −14 ± 3 mOsm/kg H2O | 42 ± 1% | 301 ± 2 mOsm/kg H2O | 39 ± 1* % | 289 ± 2*† mOsm/kg H2O | 37 ± 1*† % | 287 ± 2*† mOsm/kg H2O | 40 ± 1% | 299 ± 2 mOsm/kg H2O |  |  |  |  |  |  | 
